Values quoted from earlier work as cited in patent US11759449B2, “Methods for reducing oxidative effects of free radicals” (Hugg LLC, priority 2021, dated 2023).

Experiments:
[1] = background, refs (2, 3)
[2] = background, refs (2, 3); remark: listed apart in the source

- solubility [1]: poor
- bioavailability [2]: poor
SMILES: Oc1ccc(C=Cc2cc(O)cc(O)c2)cc1 [resveratrol]
